The record followed here is paper PMC6556873, “Rapid Covalent-Probe Discovery by Electrophile-Fragment Screening” (Journal of the American Chemical Society, 2019).

Each structure is given as a SMILES string. Like-named read-outs stand apart in the source and are kept apart here.

One may read the viability as a read-out of living cells in per cent, often relative to untreated cells.

Data set [1] is described as follows: in vitro. The conditions noted are these: human, ccd841 cells. Details: species or system HB2, HEK293.
Data set [2] in a line: in vitro. Details: species or system HB2, CCD841. The conditions noted are these: human, hek293 cells.
A further data set deals with T1, PCAF (Homo sapiens, UniProt Q92831).
T1 construct: gene KAT2B
Details: Intact protein LC/MS covalent labelling, fragments in pools of five, 200 uM each, 4 °C. The conditions noted are these: 24 h, 4 °C, pool of five; 200 µM; covalent.

A further data set concerns the target T2, OTUB2 (OTUB2A) (Homo sapiens, UniProt Q96DC9).
T2 construct: full length residues 1-234, E. coli BL21(DE3)-R3, His tag removed by TEV, construct 27312 Da
T2 sequence (Q96DC9 1-234): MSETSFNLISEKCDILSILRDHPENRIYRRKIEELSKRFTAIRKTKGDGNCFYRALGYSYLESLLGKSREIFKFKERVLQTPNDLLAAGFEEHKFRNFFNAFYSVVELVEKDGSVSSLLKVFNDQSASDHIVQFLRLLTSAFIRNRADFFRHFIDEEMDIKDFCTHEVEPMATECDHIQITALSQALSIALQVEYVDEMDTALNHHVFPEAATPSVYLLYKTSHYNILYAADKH
Details: Intact protein LC/MS covalent labelling, fragments in pools of five, 200 uM each, 4 °C. The conditions noted are these: 24 h, 4 °C, pool of five; 200 µM; covalent.

The next data set addresses T3, BSA (Bos taurus, UniProt P02769).
T3 construct: gene ALB
Details: Intact protein LC/MS covalent labelling, fragments in pools of five, 200 uM each, 4 °C. The conditions noted are these: 24 h, 4 °C, pool of five; 200 µM; covalent.

The target in another data set is T4, NUDT7 (Homo sapiens, UniProt P0C024).
T4 construct: residues 14-235, E. coli, pNIC28-Bsa4, N-terminal His6 tag removed by TEV, construct 26672 Da
Details: Intact protein LC/MS covalent labelling, fragments in pools of five, 200 uM each, 4 °C. The conditions noted are these: 24 h, 4 °C, pool of five; 200 µM; covalent.

Data set [3] is described as follows: in vitro. Details: species or system CCD841, HEK293. The conditions noted are these: human, hb2 cells, read-out: HB-2 Cells Viability (%).

T4 sequence (P0C024 14-235): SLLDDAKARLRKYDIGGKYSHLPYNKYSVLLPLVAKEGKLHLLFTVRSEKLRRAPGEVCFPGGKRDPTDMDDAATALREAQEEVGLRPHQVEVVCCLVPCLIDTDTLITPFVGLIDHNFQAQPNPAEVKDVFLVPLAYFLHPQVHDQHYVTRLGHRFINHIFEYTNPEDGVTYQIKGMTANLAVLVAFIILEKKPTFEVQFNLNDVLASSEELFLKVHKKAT
T3 sequence (P02769 whole entry): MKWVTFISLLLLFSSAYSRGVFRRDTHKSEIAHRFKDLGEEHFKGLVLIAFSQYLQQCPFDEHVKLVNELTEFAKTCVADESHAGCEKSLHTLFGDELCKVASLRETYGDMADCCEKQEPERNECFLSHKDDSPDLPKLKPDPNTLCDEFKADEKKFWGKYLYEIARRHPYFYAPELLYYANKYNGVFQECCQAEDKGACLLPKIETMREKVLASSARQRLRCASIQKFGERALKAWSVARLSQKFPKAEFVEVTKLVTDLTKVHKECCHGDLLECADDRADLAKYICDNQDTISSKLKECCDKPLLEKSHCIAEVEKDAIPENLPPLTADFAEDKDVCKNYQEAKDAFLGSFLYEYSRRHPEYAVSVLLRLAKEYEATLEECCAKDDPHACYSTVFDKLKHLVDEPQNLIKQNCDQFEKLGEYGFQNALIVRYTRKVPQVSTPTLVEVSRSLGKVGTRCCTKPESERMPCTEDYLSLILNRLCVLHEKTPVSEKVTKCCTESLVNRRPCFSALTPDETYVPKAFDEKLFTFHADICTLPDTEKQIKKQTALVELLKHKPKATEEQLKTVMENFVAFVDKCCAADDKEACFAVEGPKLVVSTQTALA
T1 sequence (Q92831 whole entry): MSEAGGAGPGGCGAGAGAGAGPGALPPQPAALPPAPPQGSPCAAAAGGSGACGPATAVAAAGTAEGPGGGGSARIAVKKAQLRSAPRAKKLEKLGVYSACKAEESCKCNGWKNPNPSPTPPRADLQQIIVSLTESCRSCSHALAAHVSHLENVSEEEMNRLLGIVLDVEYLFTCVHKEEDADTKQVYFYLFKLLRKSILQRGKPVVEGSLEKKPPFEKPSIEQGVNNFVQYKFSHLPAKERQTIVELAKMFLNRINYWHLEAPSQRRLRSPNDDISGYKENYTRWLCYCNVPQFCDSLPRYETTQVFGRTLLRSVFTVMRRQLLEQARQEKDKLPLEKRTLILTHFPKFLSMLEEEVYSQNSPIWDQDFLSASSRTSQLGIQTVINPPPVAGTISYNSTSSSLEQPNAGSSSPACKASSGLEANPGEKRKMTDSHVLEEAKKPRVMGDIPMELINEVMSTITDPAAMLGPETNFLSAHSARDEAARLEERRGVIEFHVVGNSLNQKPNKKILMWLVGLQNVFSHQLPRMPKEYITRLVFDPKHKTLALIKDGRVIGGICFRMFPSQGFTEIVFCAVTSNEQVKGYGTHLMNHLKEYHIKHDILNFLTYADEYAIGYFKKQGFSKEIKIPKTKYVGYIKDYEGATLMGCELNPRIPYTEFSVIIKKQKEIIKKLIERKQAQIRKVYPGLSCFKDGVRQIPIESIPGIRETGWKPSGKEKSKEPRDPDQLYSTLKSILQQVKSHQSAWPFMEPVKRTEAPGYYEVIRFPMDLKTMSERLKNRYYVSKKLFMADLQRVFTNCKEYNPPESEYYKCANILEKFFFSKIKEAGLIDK

For `CC(NC(=O)CCl)c1cc2ccccc2o1` (centres unmarked) [PCM-0102117], the results for the viability at 48 h, 10 µM in the data set “in vitro [1]”, in the data set “in vitro [2]” and in “in vitro [3]” were 70.7%, 62.9% and 71%, respectively. On PCAF, this compound registered a PCAF of 0. Besides, the OTUB2 at OTUB2 (OTUB2A) was 0.41. The compound further came in with a BSA on BSA of 0. The compound further yielded an NUDT7 at NUDT7 of 0.12.

For the compound `C=CC(=O)NCc1cnn2ccccc12` [PCM-0102561], the values for the viability at 48 h, 10 µM in “in vitro [1]”, in the data set “in vitro [2]” and in the data set “in vitro [3]” were 124%, 95.2% and 108%, respectively. On PCAF, the PCAF stood at 0. At OTUB2 (OTUB2A), this compound returned an OTUB2 of 0. Moreover, the BSA at BSA worked out at 0. The compound further showed an NUDT7 at NUDT7 of 0.

For the compound `C=CC(=O)NC1CCCn2nc(C)nc21` (centres unmarked) [PCM-0103083], the viability at 48 h, 10 µM in “in vitro [1]” stood at 116%; in the data set “in vitro [2]” it was 115%; in “in vitro [3]” it was 105%. The same compound came in with a PCAF on PCAF of 0. Besides, the OTUB2 on OTUB2 (OTUB2A) amounted to 0. This compound also returned a BSA on BSA of 0. Also, on NUDT7, the NUDT7 was found to be 0.

For the compound `N#Cc1ccc(Cl)cc1NC(=O)CCl` [PCM-0102700], the viability at 48 h, 10 µM in “in vitro [1]” stood at 68.1%; in the data set “in vitro [2]”, 64.8%; in “in vitro [3]”, 57.6%. Further, on PCAF, the PCAF is given as 0. On OTUB2 (OTUB2A), this compound came in with an OTUB2 of 0.17. For the same compound, the BSA on BSA amounted to 0. Moreover, the NUDT7 at NUDT7 worked out at 0.4.

`C=CC(=O)N1CCCC(C(C)NC(=O)NC(C)(C)C)C1` (centres unmarked) [PCM-0102723]: the viability at 48 h, 10 µM in “in vitro [1]” was found to be 109%; in “in vitro [2]”, 99.2%; in “in vitro [3]” it was 105%. The same compound had a PCAF on PCAF of 0. The OTUB2 on OTUB2 (OTUB2A) is on record as 0. Also, the BSA on BSA amounted to 0. The compound further showed an NUDT7 at NUDT7 of 0.

For the compound `CC(C)C(C#N)N1CCN(C(=O)CCl)CC1` (centres unmarked) [PCM-0102263], the values for the viability at 48 h, 10 µM in “in vitro [1]”, in “in vitro [2]” and in the data set “in vitro [3]” were 65.2%, 13.9% and 64%, respectively. The compound also returned a PCAF at PCAF of 0. The compound further yielded an OTUB2 on OTUB2 (OTUB2A) of 0.31. The compound further yielded a BSA on BSA of 0. Further, the NUDT7 at NUDT7 stood at 0.17.

Consider `CC1CCN(C(=O)CCl)c2ccccc2S1` (centres unmarked) [PCM-0102216], for which the viability at 48 h, 10 µM in “in vitro [1]” is 52.4%; in the data set “in vitro [2]”, 42.4%; in “in vitro [3]” it was 77.3%. At PCAF, the PCAF was found to be 0. Also, the OTUB2 on OTUB2 (OTUB2A) is given as 0. This compound displayed a BSA at BSA of 0. Moreover, on NUDT7, the NUDT7 is 0.32.

With `O=C(CCl)Nc1cccc(I)c1` [PCM-0102154], the viability at 48 h, 10 µM stood at 49% in “in vitro [1]”, 1.7% in the data set “in vitro [2]” and 12.7% in the data set “in vitro [3]”. This compound also displayed a PCAF on PCAF of 0. For the same compound, at OTUB2 (OTUB2A), the OTUB2 came out at 0.49. Further, on BSA, the BSA is recorded as 0. Further, the NUDT7 at NUDT7 came to 0.24.

As to `C=CC(=O)Nc1ccccc1[N+](=O)[O-]` [PCM-0102742], the viability at 48 h, 10 µM was 66.4% in the data set “in vitro [1]”, 65.8% in the data set “in vitro [2]” and 41.2% in the data set “in vitro [3]”. The compound further had a PCAF at PCAF of 0. In addition, the OTUB2 at OTUB2 (OTUB2A) was 0. The BSA at BSA stood at 0. The compound further registered an NUDT7 at NUDT7 of 0.41.

Turning to `C=CC(=O)Nc1cccc(C#N)c1` [PCM-0102956], the values for the viability at 48 h, 10 µM in “in vitro [1]”, in “in vitro [2]” and in “in vitro [3]” were 102%, 74.5% and 104%, respectively. Moreover, the PCAF at PCAF amounted to 0. Further, the OTUB2 on OTUB2 (OTUB2A) amounted to 0. For the same compound, the BSA on BSA came to 0. In addition, at NUDT7, the NUDT7 was 0.

Take `CC(NC(=O)CCl)c1ccc2ccccc2c1` (centres unmarked) [PCM-0102350]: the values for the viability at 48 h, 10 µM in the data set “in vitro [1]”, in the data set “in vitro [2]” and in “in vitro [3]” were 70.6%, 58.5% and 66%, respectively. The compound further registered a PCAF at PCAF of 0. Besides, on OTUB2 (OTUB2A), the OTUB2 came to 0.47. On BSA, this compound had a BSA of 0. The compound also registered an NUDT7 at NUDT7 of 0.31.

For `CC(NC(=O)CCl)c1cccc(Cl)c1` (centres unmarked) [PCM-0102190], the viability at 48 h, 10 µM was found to be 73.2% in “in vitro [1]”, 49.3% in the data set “in vitro [2]” and 69.6% in the data set “in vitro [3]”. This compound gave a PCAF on PCAF of 0. The same compound returned an OTUB2 at OTUB2 (OTUB2A) of 0.37. At BSA, this compound came in with a BSA of 0. This compound also came in with an NUDT7 on NUDT7 of 0.42.

`Cc1ccc2nc(NC(=O)CCl)sc2c1` [PCM-0103031]: the viability at 48 h, 10 µM in the data set “in vitro [1]” worked out at 74.9%; in the data set “in vitro [2]”, 79.2%; in “in vitro [3]”, 70.6%. On PCAF, the PCAF is listed as 0. For the same compound, the OTUB2 on OTUB2 (OTUB2A) is given as 0.18. Also, the BSA on BSA came to 0. On NUDT7, the NUDT7 is 0.88.

With `O=C(CCl)Nc1cc(Cl)ccc1F` [PCM-0102762], the viability at 48 h, 10 µM stood at 49.4% in the data set “in vitro [1]”, 2.4% in “in vitro [2]” and 11.4% in the data set “in vitro [3]”. The same compound displayed a PCAF at PCAF of 0. The OTUB2 at OTUB2 (OTUB2A) is 0.13. The BSA on BSA came out at 0. Also, on NUDT7, the NUDT7 stood at 0.

On to `CC1CC(C)CN(C(=O)CCl)C1` (centres unmarked) [PCM-0102789], for which the viability at 48 h, 10 µM stood at 83.1% in “in vitro [1]”, 61.8% in the data set “in vitro [2]” and 102% in the data set “in vitro [3]”. The same compound gave a PCAF on PCAF of 0. At OTUB2 (OTUB2A), this compound came in with an OTUB2 of 0.08. Also, on BSA, the BSA was 0. Further, at NUDT7, the NUDT7 came out at 0.

Consider `O=C(CCl)N(C1CC1)C1CCS(=O)(=O)C1` (centres unmarked) [PCM-0102832], for which the viability at 48 h, 10 µM in the data set “in vitro [1]” was determined as 85.1%; in the data set “in vitro [2]”, 67.9%; in “in vitro [3]”, 88.7%. This compound came in with a PCAF on PCAF of 0. Also, the OTUB2 on OTUB2 (OTUB2A) stood at 0.43. On BSA, this compound displayed a BSA of 0. In addition, the NUDT7 on NUDT7 turned out to be 0.

For the compound `C=CC(=O)NCc1cccc(C(F)(F)F)c1` [PCM-0102825], the viability at 48 h, 10 µM in “in vitro [1]” is 107%; in “in vitro [2]” it was 82.3%; in “in vitro [3]” it was 97.4%. At PCAF, the PCAF was found to be 0. Also, at OTUB2 (OTUB2A), the OTUB2 is given as 0. On BSA, this compound registered a BSA of 0. Moreover, the NUDT7 at NUDT7 stood at 0.

On to `O=C(CCl)N1CCCCCCC1` [PCM-0102377], for which the viability at 48 h, 10 µM in the data set “in vitro [1]” came out at 82.1%; in “in vitro [2]”, 43.5%; in “in vitro [3]”, 36.7%. This compound also had a PCAF at PCAF of 0. This compound also came in with an OTUB2 on OTUB2 (OTUB2A) of 0. Moreover, on BSA, the BSA came to 0. This compound gave an NUDT7 at NUDT7 of 0.

For the compound `O=C(CCl)Nc1cc(C(F)(F)F)ccc1N1CCCC1` [PCM-0102321], the viability at 48 h, 10 µM in the data set “in vitro [1]” turned out to be 116%; in “in vitro [2]”, 110%; in the data set “in vitro [3]” it was 104%. For the same compound, the PCAF on PCAF is given as 0. Also, the OTUB2 on OTUB2 (OTUB2A) amounted to 0. On BSA, this compound yielded a BSA of 0. For the same compound, on NUDT7, the NUDT7 was found to be 0.

On to `O=C(CCl)N1CCN(C(=O)C2COc3ccccc3O2)CC1` (centres unmarked) [PCM-0102996], for which the viability at 48 h, 10 µM in the data set “in vitro [1]” was found to be 56.4%; in “in vitro [2]” it was 5.8%; in the data set “in vitro [3]”, 19.8%. The same compound had a PCAF at PCAF of 0. The OTUB2 at OTUB2 (OTUB2A) is reported as 0.13. For the same compound, at BSA, the BSA was 0. Further, on NUDT7, the NUDT7 was determined as 0.
